# Target: T1, MerTK (Homo sapiens, UniProt Q12866)
# T1 construct: endogenous in cells; host or cells: Jurkat cells
# T1 sequence (Q12866 21-999): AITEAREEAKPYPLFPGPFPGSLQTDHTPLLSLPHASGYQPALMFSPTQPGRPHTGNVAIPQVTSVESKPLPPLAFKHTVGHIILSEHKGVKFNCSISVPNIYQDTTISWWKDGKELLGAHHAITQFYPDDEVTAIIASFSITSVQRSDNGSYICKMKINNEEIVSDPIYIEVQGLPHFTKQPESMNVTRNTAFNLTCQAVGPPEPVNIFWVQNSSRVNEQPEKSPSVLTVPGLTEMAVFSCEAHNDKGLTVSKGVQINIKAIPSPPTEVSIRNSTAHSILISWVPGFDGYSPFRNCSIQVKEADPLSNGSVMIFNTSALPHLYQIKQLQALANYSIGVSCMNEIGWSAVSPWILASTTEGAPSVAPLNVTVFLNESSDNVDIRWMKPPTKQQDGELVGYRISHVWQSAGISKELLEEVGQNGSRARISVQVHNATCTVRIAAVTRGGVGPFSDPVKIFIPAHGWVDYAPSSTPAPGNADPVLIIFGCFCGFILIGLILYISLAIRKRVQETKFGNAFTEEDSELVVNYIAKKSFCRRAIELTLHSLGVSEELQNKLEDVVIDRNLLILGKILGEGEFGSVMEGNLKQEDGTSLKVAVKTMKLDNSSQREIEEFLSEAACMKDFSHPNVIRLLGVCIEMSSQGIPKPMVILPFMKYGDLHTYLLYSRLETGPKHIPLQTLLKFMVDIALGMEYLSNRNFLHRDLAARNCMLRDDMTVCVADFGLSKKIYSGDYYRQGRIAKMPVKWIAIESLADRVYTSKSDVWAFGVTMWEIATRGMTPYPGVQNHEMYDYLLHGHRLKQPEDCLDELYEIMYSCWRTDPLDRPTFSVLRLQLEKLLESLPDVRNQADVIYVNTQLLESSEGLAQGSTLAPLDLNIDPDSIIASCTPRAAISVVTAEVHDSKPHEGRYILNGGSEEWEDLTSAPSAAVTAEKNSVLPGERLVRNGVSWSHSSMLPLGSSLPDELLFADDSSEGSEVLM
# Assay: MerTk degradation in Jurkat cells (Western blot)
# Format: cell-based
# Conditions: Jurkat, 4 h, 0.001-1 μM, 4 hour-incubation at 37° C., read-out: Jurkat Max % MerTK Degradation
# How it was run: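 Jurkat cells treated 4 h at 37 °C with compound at 0.001-1 μM final. RIPA lysates quantified by BCA, then MerTK probed by Western blot against actin loading control with IR-dye secondaries and Odyssey imaging.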
row,SMILES,Dmax [%]
1,"Cn1c(=O)n([C@H]2CCC(=O)NC2=O)c2ccc(Cn3cc(CN4CCN(Cc5ccc(-c6cn([C@H]7CC[C@H](O)CC7)c7nc(NCCC(F)(F)F)ncc67)cc5)CC4)nn3)cc21 [I-113, 3-(3-Methyl-2-oxo-5-[[4-([4-[(4-[7-[trans-4-hydroxycyclohexyl]-2-[(3,3,3-trifluoropropyl)amino]-7H-pyrrolo[2,3-d]pyrimidin-5-yl]phenyl)methyl]piperazin-1-yl]methyl)-1H-1,2,3-triazol-1-yl]methyl]-2,3-dihydro-1H-1,3-benzodiazol-1-yl)piperidine-2,6-dione]",> 50
2,"Cn1c(=O)n([C@H]2CCC(=O)NC2=O)c2ccc(CCn3cc(CN4CCN(Cc5ccc(-c6cn([C@H]7CC[C@H](O)CC7)c7nc(NCCC(F)(F)F)ncc67)cc5)CC4)nn3)cc21 [I-114, 3-(3-methyl-2-oxo-5-[12-[4-([4-1(4-[17-[trans-4-hydroxycyclohexyl]-2-[(3,3,3-trifluoropropyl)aminol-7H-pyrrolo[2,3-d]pyrimidin-5-yl]phenyl)methyl]piperazin-1-yl]methyl)-1H-1,2,3-triazol-1-yl]ethyl]-2,3-dihydro-1H-1,3-benzodiazol-1-yl)piperidine-2,6-dione]",> 50
3,"Cn1c(=O)n([C@H]2CCC(=O)NC2=O)c2ccc(CCCOCCCN3CCN(Cc4ccc(-c5cn([C@H]6CC[C@H](O)CC6)c6nc(NCCC(F)F)ncc56)cc4)CC3)cc21 [I-115, 3-[5-[3-(3-[4-[(4-[2-[(3,3-difluoropropyl)amino]-7-[(1r,4r)-4-hydroxycyclohexy1]-7H-pyrrolo[2,3-d]pyrimidin-5-yl]phenyl)methyl]piperazin-1-yl]propoxy)propyl]-3-methyl-2-oxo-2,3-dihydro-1H-1,3-benzodiazol-1-yl]piperidine-2,6-dione; formic acid]",> 50
4,"Cn1c(=O)n([C@H]2CCC(=O)NC2=O)c2ccc(CCCN3CC(N4CCN(Cc5ccc(-c6cn([C@H]7CC[C@H](O)CC7)c7nc(NCCC(F)(F)F)ncc67)cc5)CC4)C3)cc21 [I-116, 3-[3-methyl-2-oxo-5-[3-(3-[4-[(4-[7-[trans-4-hydroxycyclohexyl]-2-[(3,3,3-trifluoropropyl)amino]-7H-pyrrolo[2,3-d]pyrimidin-5-yl]phenyl)methyl]piperazin-1-yl]azetidin-1-y1)propyl]-2,3-dihydro-1H-1,3-benzodiazol-1-yl]piperidine-2,6-dione]",> 50
5,"Cn1c(=O)n([C@H]2CCC(=O)NC2=O)c2ccc(CCCN3CCC(N4CCN(Cc5ccc(-c6cn([C@H]7CC[C@H](O)CC7)c7nc(NCCC(F)(F)F)ncc67)cc5)CC4)CC3)cc21 [I-117, 3-[3-methyl-2-oxo-5-[3-(4-[4-[(4-[7-[trans-4-hydroxycyclohexy1]-2-[(3,3,3-trifluoropropyl)amino]-7H-pyrrolo[2,3-d]pyrimidin-5-yl]phenyl)methyl]piperazin-1-yl]piperidin-1-y1)propyl]-2,3-dihydro-1H-1,3-benzodiazol-1-yl]piperidine-2,6-dione]",> 50

# The next lines start with the values.
row,Dmax [%],SMILES
1,20 to 50,"Cn1c(=O)n(C2CCC(=O)NC2=O)c2ccc(CCCN3CCCC(N4CCN(Cc5ccc(-c6cn([C@H]7CC[C@H](O)CC7)c7nc(NCCC(F)(F)F)ncc67)cc5)CC4)C3)cc21 (stereo partly drawn) [I-118, 3-[3-methyl-2-oxo-5-[3-(3-[4-[(4-[7-[trans-4-hydroxycyclohexy1]-2-[(3,3,3-trifluoropropyl)amino]-7H-pyrrolo[2,3-d]pyrimidin-5-yl]phenyl)methyl]piperazin-1-y1]piperidin-1-y1)propyl]-2,3-dihydro-1H-1,3-benzodiazol-1-yl]piperidine-2,6-dione; formic acid]"
2,> 50,"Cn1c(=O)n([C@H]2CCC(=O)NC2=O)c2ccc(CCCCN3CC(N4CCN(Cc5ccc(-c6cn([C@H]7CC[C@H](O)CC7)c7nc(NCCC(F)(F)F)ncc67)cc5)CC4)C3)cc21 [I-119, 3-[3-methyl-2-oxo-5-[4-(3-[4-[(4-[7-[trans-4-hydroxycyclohexyl]-2-[(3,3,3-trifluoropropyl)amino]-7H-pyrrolo[2,3-d]pyrimidin-5-yl]phenyl)methyl]piperazin-1-yl]azetidin-1-yl)butyl]-2,3-dihydro-1H-1,3-benzodiazol-1-yl]piperidine-2,6-dione; bis(formic acid)]"
3,> 50,"Cn1c(=O)n([C@H]2CCC(=O)NC2=O)c2ccc(CCCCN3CCC(N4CCN(Cc5ccc(-c6cn([C@H]7CC[C@H](O)CC7)c7nc(NCCC(F)(F)F)ncc67)cc5)CC4)CC3)cc21 [I-120, 3-[3-methyl-2-oxo-5-[4-(4-[4-[(4-[7-[trans-4-hydroxycyclohexyl]-2-[(3,3,3-trifluoropropyl)amino]-7H-pyrrolo[2,3-d]pyrimidin-5-yl]phenyl)methyl]piperazin-1-yl]piperidin-1-yl)butyl]-2,3-dihydro-1H-1,3-benzodiazol-1-yl]piperidine-2,6-dione]"
4,> 50,"Cn1c(=O)n(C2CCC(=O)NC2=O)c2ccc(CCCCN3CCCC(N4CCN(Cc5ccc(-c6cn([C@H]7CC[C@H](O)CC7)c7nc(NCCC(F)(F)F)ncc67)cc5)CC4)C3)cc21 (stereo partly drawn) [I-121, 3-[3-methyl-2-oxo-5-[4-(3-[4-[(4-[7-[trans-4-hydroxycyclohexyl]-2-[(3,3,3-trifluoropropyl)amino]-7H-pyrrolo[2,3-d]pyrimidin-5-yl]phenyl)methyl]piperazin-1-yl]piperidin-1-yl)butyl]-2,3-dihydro-1H-1,3-benzodiazol-1-yl]piperidine-2,6-dione]"
5,> 50,"Cn1c(=O)n(C2CCC(=O)NC2=O)c2ccc(CCCN3CCC(N4CCN(Cc5ccc(-c6cn([C@H]7CC[C@H](O)CC7)c7nc(NCCC(F)(F)F)ncc67)cc5)CC4)C3)cc21 (stereo partly drawn) [I-122, 3-[3-methyl-2-oxo-5-[3-(3-[4-[(4-[7-[trans-4-hydroxycyclohexy1]-2-[(3,3,3-trifluoropropyl)amino]-7H-pyrrolo[2,3-d]pyrimidin-5-yl]phenyl)methyl]piperazin-1-y1]pyrrolidin-1-y1)propyl]-2,3-dihydro-1H-1,3-benzodiazol-1-yl]piperidine-2,6-dione; formic acid]"
6,> 50,"Cn1c(=O)n(C2CCC(=O)NC2=O)c2ccc(CCCCN3CCC(N4CCN(Cc5ccc(-c6cn([C@H]7CC[C@H](O)CC7)c7nc(NCCC(F)(F)F)ncc67)cc5)CC4)C3)cc21 (stereo partly drawn) [I-123, 3-[3-methyl-2-oxo-5-[4-(3-[4-[(4-[7-[trans-4-hydroxycyclohexyl]-2-[(3,3,3-trifluoropropyl)amino]-7H-pyrrolo[2,3-d]pyrimidin-5-yl]phenyl)methyl]piperazin-1-yl]pyrrolidin-1-yl)butyl]-2,3-dihydro-1H-1,3-benzodiazol-1-yl]piperidine-2,6-dione; formic acid]"
7,> 50,"Cn1c(=O)n(C2CCC(=O)NC2=O)c2ccc(CCN3CCC(OCCN4CCN(Cc5ccc(-c6cn([C@H]7CC[C@H](O)CC7)c7nc(NCCC(F)(F)F)ncc67)cc5)CC4)C3)cc21 (stereo partly drawn) [I-124, 3-(3-methyl-2-oxo-5-[2-[3-(2-[4-[(4-[7-[trans-4-hydroxycyclohexyl]-2-[(3,3,3-trifluoropropyl)amino]-7H-pyrrolo[2,3-d]pyrimidin-5-yl]phenyl)methyl]piperazin-1-yl]ethoxy)pyrrolidin-1-yl]ethyl]-2,3-dihydro-1H-1,3-benzodiazol-1-y1)piperidine-2,6-dione; tris(formic acid)]"

# Source: patent US20260042762A1 (Kymera Therapeutics, Inc., priority 2018, published 2026)
